Results from patent publication US20230022745A1, “Methods for Labeling a Population of RNA Molecules” (priority 2013, published 2023).
“Also recorded” adds a separate entry of the source.

B1: S. pombe HNT3 protein (protein, UniProt O74859 1-232, looked up)
Aprataxin-like protein: MSVHKTNDAFKVLMNSAKEPIVEDIPKKYRKQSFRDNLKVYIESPESYKNVIYYDDDVVLVRDMFPKSKMHLLLMTRDPHLTHVHPLEIMMKHRSLVEKLVSYVQGDLSGLIFDEARNCLSQQLTNEALCNYIKVGFHAGPSMNNLHLHIMTLDHVSPSLKNSAHYISFTSPFFVKIDTPTSNLPTRGTLTSLFQEDLKCWRCGETFGRHFTKLKAHLQEEYDDWLDKSVSM
B2: RppH (protein, UniProt P0A776 1-176, looked up)
RNA pyrophosphohydrolase: MIDDDGYRPNVGIVICNRQGQVMWARRFGQHSWQFPQGGINPGESAEQAMYRELFEEVGLSRKDVRILASTRNWLRYKLPKRLVRWDTKPVCIGQKQKWFLLQLVSGDAEINMQTSSTPEFDGWRWVSYWYPVRQVVSFKRDVYRRVMKEFASVVMSLQENTPKPQNASAYRRKRG

Key:
Format in all cases: biochemical
[1] = tested on: Vaccinia Capping Enzyme (VCE)
[2] = tested on: Vaccinia Capping Enzyme (VCE); remark: listed apart in the source
[3] = tested on: Cap0 or Cap1 25 mer transcript; conditions: 5-135 ng protein, 10 minutes at 30° C.
[4] = tested on: 3′ DTB-GTP capped 25mer T7 transcript; conditions: 30 minutes at 37° C. in 1× Thermopol Buffer

| Molecule | recovery of transcript after streptavidin binding and biotin elution [1] | capping of 5′ triphosphorylated RNA by VCE [2] | other results |
| --- | --- | --- | --- |
| 2′-DBT-TEG-guanosine 5′ triphosphate [2′ DBT-TEG-GTP] | little to no P^32; also recorded: no better than control GTP for recovery | – | – |
| 3′-DBT-TEG-guanosine 5′ triphosphate [3′ DBT-TEG-GTP] | selectively bound to the streptavidin beads and eluted with 10 mM biotin; also recorded: recovered after binding to streptavidin | effectively caps | capping of 5′ diphosphate RNA by VCE [2]: substrate for capping |
| C#CCO[C@H]1[C@@H](O)[C@H](n2cnc3c(=O)[nH]c(N)nc32)O[C@@H]1COP(=O)(O)OP(=O)(O)OP(=O)(O)O [3′ propargyl-GTP, 3′(O-Propargyl) Guanosine 5′ Triphosphate] | – | efficiently incorporated as a modified cap | – |
| [N-]=[N+]=N[C@H]1C[C@H](n2cnc3c(=O)[nH]c(N)nc32)O[C@@H]1COP(=O)(O)OP(=O)(O)OP(=O)(O)O [3′-azido-GTP, 3′-Azido-2′,3′ ddGTP, reference compound] | – | can be capped | – |
| Nc1nc2c(ncn2[C@@H]2O[C@H](COP(=O)(O)OP(=O)(O)OP(=O)(O)O)[C@@H](O)[C@H]2O)c(=O)[nH]1 [GTP, reference compound] | little to no P^32 | – | – |
| B1 | – | – | decapping of capped RNA [3]: can decap RNA |
| B2 | – | – | decapping of DTB-GTP-capped RNA [4]: effectively decaps |
